molecular target: PIK3CA (human) (UniProt P42336); experiment: Inhibition of PIK3CA Kinase Activity
Sequence (P42336 whole entry, looked up): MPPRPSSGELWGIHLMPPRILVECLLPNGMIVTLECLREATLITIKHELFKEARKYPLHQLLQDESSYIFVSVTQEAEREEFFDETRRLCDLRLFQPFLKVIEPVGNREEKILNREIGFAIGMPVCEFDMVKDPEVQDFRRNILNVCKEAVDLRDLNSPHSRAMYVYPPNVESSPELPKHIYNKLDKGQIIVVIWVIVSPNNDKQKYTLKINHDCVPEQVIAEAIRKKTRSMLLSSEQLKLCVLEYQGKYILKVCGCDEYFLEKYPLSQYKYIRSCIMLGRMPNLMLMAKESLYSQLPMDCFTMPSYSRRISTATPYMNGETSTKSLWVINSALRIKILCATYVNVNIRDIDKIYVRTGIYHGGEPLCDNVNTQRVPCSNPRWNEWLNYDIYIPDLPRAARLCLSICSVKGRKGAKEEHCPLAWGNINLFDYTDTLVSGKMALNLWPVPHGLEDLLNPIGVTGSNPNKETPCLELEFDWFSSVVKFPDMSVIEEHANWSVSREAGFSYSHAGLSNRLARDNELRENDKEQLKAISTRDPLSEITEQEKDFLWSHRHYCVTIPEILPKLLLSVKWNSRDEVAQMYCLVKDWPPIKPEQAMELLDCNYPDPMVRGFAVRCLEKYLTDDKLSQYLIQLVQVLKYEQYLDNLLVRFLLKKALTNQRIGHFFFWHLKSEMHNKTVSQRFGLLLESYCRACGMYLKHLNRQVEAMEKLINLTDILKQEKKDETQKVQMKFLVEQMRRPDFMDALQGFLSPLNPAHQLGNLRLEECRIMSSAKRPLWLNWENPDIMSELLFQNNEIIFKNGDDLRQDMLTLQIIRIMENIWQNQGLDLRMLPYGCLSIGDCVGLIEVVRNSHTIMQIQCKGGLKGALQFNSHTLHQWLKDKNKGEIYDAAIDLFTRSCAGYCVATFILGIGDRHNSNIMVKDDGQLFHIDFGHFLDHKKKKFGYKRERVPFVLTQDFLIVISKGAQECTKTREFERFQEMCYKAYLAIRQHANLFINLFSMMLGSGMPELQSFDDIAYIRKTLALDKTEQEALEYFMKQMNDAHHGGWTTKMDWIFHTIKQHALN

Row | IC50 [µM] | SMILES
1 | 0.01 to 0.05 | Cc1nc2ncc(-c3ccc4c(c3)CN(c3ncnc(C)c3C(C)C)CCO4)cc2[nH]1
2 | ≤ 0.01 | CCNCc1nc2c(c(N3CCOc4ccc(-c5ccc6nc(C)[nH]c6c5)cc4C3)n1)CC(C)(C)CC2
3 | 0.01 to 0.05 | Cc1nc2ccc(-c3ccc4c(c3)CN(c3ncnc5cc(I)ccc35)CCO4)cc2[nH]1
4 | 0.01 to 0.05 | Cc1nc(N2CCOc3ccc(-c4ccc(-c5ncc[nH]5)cc4)cc3C2)c2ccccc2n1
5 | ≤ 0.01 | Cc1nc2ncc(-c3ccc4c(c3)CN(c3nc(CN[C@@H](C)C(=O)O)nc5c3CC(C)(C)CC5)CCO4)cc2[nH]1
6 | ≤ 0.01 | Cc1c(Nc2ccccc2)ncnc1N1CCOc2ccc(-c3cnc4nc(N)[nH]c4c3)cc2C1
7 | 0.25 to 1 | Cc1nc2ccc(-c3ccc4c(c3)CN(c3cc(C(C)C)ncn3)CCO4)cc2[nH]1
8 | 0.01 to 0.05 | Cc1nc2ccc(-c3ccc4c(c3)CN(c3ncnc(C)c3Cc3ccc(Cl)c(N(C)C)c3)CCO4)cc2[nH]1
9 | 0.05 to 0.25 | CC1(C)CCc2ncnc(N3CCOc4ccc(-c5cncc(S(N)(=O)=O)c5)cc4C3)c2C1
10 | 0.01 to 0.05 | Cc1nc2ncc(-c3ccc4c(c3)CN(c3nc(CO)nc5c3CC(C)(C)CC5)CCO4)cc2[nH]1
11 | 0.01 to 0.05 | Cc1ncc(-c2ccc3c(c2)CN(c2ncnc4c2CC(C)(C)CC4)CCO3)cc1NS(C)(=O)=O
12 | 0.05 to 0.25 | Cc1nc2ccc(-c3ccc4c(c3)CN(c3ncnc(C)c3C(C)C)CCO4)cc2[nH]1
13 | ≤ 0.01 | Cc1nc2ncc(-c3ccc4c(c3)CN(c3nc(CN)nc5c3CC(C)(C)CC5)CCO4)cc2[nH]1
14 | 0.01 to 0.05 | CC1(C)CCc2ncnc(N3CCOc4ccc(-c5ccc6[nH]c(C(F)F)nc6c5)cc4C3)c2C1
15 | 0.01 to 0.05 | CSc1nc2ccc(-c3ccc4c(c3)CN(c3ccnc5ccccc35)CCO4)cc2[nH]1
16 | 0.05 to 0.25 | COc1ccc2c(N3CCOc4ccc(-c5ccc(N)nc5)cc4C3)nc(C)nc2c1
17 | ≤ 0.01 | CC1(C)CCc2ncnc(N3CCOc4ccc(-c5cnc(N)c(S(=O)(=O)NCCO)c5)cc4C3)c2C1
18 | ≤ 0.01 | CCNc1nc2ccc(-c3ccc4c(c3)CN(c3ncnc(NCC)c3C)CCO4)cc2[nH]1
19 | 0.05 to 0.25 | CC1(C)CCc2ncnc(N3CCOc4ccc(-c5ccc6nc[nH]c6c5)cc4C3)c2C1
20 | 0.05 to 0.25 | CC(C)(CN)CNS(=O)(=O)c1cc(-c2ccc3c(c2)CN(c2ncnc4c2CC(C)(C)CC4)CCO3)cnc1N
21 | 0.05 to 0.25 | COc1ccc2c(N3CCOc4ccc(-c5cnc(N)nc5)cc4C3)nc(C)nc2c1
22 | 0.25 to 1 | Cc1nc2ccc(-c3ccc4c(c3)CN(c3ncnc5c(C(F)(F)F)cccc35)CCO4)cc2[nH]1

Row | IC50 [µM] | SMILES
23 | 0.05 to 0.25 | COc1ccccc1Cc1c(C)ncnc1N1CCOc2ccc(-c3ccc4nc(C)[nH]c4c3)cc2C1
24 | 0.05 to 0.25 | CCNc1nc2ncc(-c3ccc4c(c3)CN(c3ccncn3)CCO4)cc2[nH]1
25 | 0.01 to 0.05 | CC1(C)CCc2ncnc(N3CCOc4ccc(-c5cnc(N)c(S(=O)(=O)N6CCCC(O)C6)c5)cc4C3)c2C1 (configuration not stated)
26 | ≤ 0.01 | COc1ccc2c(N3CCOc4ccc(-c5cnc6nc(C)[nH]c6c5)cc4C3)ncnc2c1
27 | 0.01 to 0.05 | CC[C@H]1CCc2c(ncnc2N2CCOc3ccc(-c4cnc(N)c(S(=O)(=O)N5CC[C@@H](N)C5)c4)cc3C2)C1
28 | ≤ 0.01 | COC1Cc2nc(CN(C)C)nc(N3CCOc4ccc(-c5cnc6nc(C)[nH]c6c5)cc4C3)c2CC1(C)C (configuration not stated)
29 | 0.01 to 0.05 | CC1(C)CCc2ncnc(N3CCOc4ccc(-c5cnc(N)c(S(=O)(=O)N6CC[C@@H](N)C6)c5)cc4C3)c2C1
30 | ≤ 0.01 | Nc1nc2ncc(-c3ccc4c(c3)CN(c3ncnc5ccc(F)cc35)CCO4)cc2[nH]1
31 | 0.01 to 0.05 | CC[C@H]1CCc2c(ncnc2N2CCOc3ccc(-c4cnc(N)c(S(=O)(=O)NCC(C)(C)N)c4)cc3C2)C1
32 | 0.05 to 0.25 | COc1c(Cl)cc2c(N3CCOc4ccc(-c5ccc6nc(C)[nH]c6c5)cc4C3)ncnc2c1OC
33 | 0.01 to 0.05 | c1ccc2c(N3CCOc4ccc(-c5ccc6nc(C7CC7)[nH]c6c5)cc4C3)ccnc2c1
34 | 0.05 to 0.25 | COC(=O)Nc1nc2ccc(-c3ccc4c(c3)CN(c3ncccc3C)CCO4)cc2[nH]1
35 | 0.05 to 0.25 | CCNc1nc(N2CCOc3ccc(-c4ccc5nc(NCC)[nH]c5c4)cc3C2)c2ccccc2n1
36 | 0.25 to 1 | COCCOc1ccc2ncnc(N3CCOc4ccc(-c5ccc6nc(C)[nH]c6c5)cc4C3)c2c1
37 | 0.01 to 0.05 | COc1c(OCc2ccccc2)ccc2c(N3CCOc4ccc(-c5ccc6nc(C)[nH]c6c5)cc4C3)ncnc12
38 | 0.05 to 0.25 | Cc1nc2ccc(-c3ccc4c(c3)CN(c3ncnc5c(F)cccc35)CCO4)cc2[nH]1
39 | 0.01 to 0.05 | CC1(C)CCc2ncnc(N3CCOc4ccc(-c5cnc(N)c(S(=O)(=O)NCC6CCCNC6)c5)cc4C3)c2C1 (configuration not stated)
40 | 0.01 to 0.05 | CC[C@H]1CCc2c(ncnc2N2CCOc3ccc(-c4cnc(N)c(S(=O)(=O)N5CCC(C)(N)C5)c4)cc3C2)C1 (some centres not stated)
41 | 0.01 to 0.05 | CC1(C)CCc2ncnc(N3CCOc4ccc(-c5cnc(N)c(S(=O)(=O)NC6CNC6)c5)cc4C3)c2C1
42 | 0.25 to 1 | CN(C)Cc1nc2ncc(-c3ccc4c(c3)CN(c3ncnc5c3CC(C)(C)CC5)CCO4)cc2[nH]1
43 | 0.05 to 0.25 | Cc1c(NCCC2CCCN2C)ncnc1N1CCOc2ccc(-c3cnc4nc(C5CC5)[nH]c4c3)cc2C1 (configuration not stated)
44 | 0.01 to 0.05 | Cc1nc2ncc(-c3ccc4c(c3)CN(c3ncnc5c3CC(C)(C)C=C5)CCO4)cc2[nH]1

Row | IC50 [µM] | SMILES
45 | 0.05 to 0.25 | CCc1ncnc(N2CCOc3ccc(-c4ccc5nc(C)[nH]c5c4)cc3C2)c1CC
46 | 0.01 to 0.05 | Cc1nc2ncc(-c3ccc4c(c3)CN(c3ncnc5c3CCC(CO)C5)CCO4)cc2[nH]1 (configuration not stated)
47 | 0.25 to 1 | COc1cc2c(N3CCOc4ccc(-c5ccc6nc(C)[nH]c6c5)cc4C3)ncnc2cc1Br
48 | 0.05 to 0.25 | Cc1nc2ccc(-c3ccc4c(c3)CN(c3ncnc5cc(C(F)(F)F)ccc35)CCO4)cc2[nH]1
49 | ≤ 0.01 | COc1ccc2c(N3CCOc4ccc(-c5ccc(-c6ncc[nH]6)cc5)cc4C3)nc(C)nc2c1
50 | 0.25 to 1 | COc1ccc2c(N3CCOc4ccc(-c5ccc6[nH]ncc6c5)cc4C3)nc(C)nc2c1
51 | 0.05 to 0.25 | CN1CCC[C@H](CNS(=O)(=O)c2cc(-c3ccc4c(c3)CN(c3ncnc5c3CC(C)(C)CC5)CCO4)cnc2N)C1
52 | 0.01 to 0.05 | Nc1nc2ccc(-c3ccc4c(c3)CN(c3ccnc5ccccc35)CCO4)cc2[nH]1
53 | 0.05 to 0.25 | CC(C)(CO)CNS(=O)(=O)c1cc(-c2ccc3c(c2)CN(c2ncnc4c2CC(C)(C)CC4)CCO3)cnc1N
54 | 0.01 to 0.05 | Cc1nc2ncc(-c3ccc4c(c3)CN(c3ncnc5c3CC(C)(C)CC5)CCO4)cc2[nH]1
55 | 0.05 to 0.25 | Cc1nc2ccc(-c3ccc4c(c3)CN(c3ncnc5c3CCCC5)CCO4)cc2[nH]1
56 | ≤ 0.01 | Nc1nc2ncc(-c3ccc4c(c3)CN(c3ncnc5cc(Cl)c(Br)cc35)CCO4)cc2[nH]1
57 | ≤ 0.01 | COCCc1c(C)nc(CN(C)C)nc1N1CCOc2ccc(-c3ccc4nc(C)[nH]c4c3)cc2C1
58 | ≤ 0.01 | COc1ccc2c(N3CCOc4ccc(-c5cnc(N)c(S(=O)(=O)C[C@@H](C)CO)c5)cc4C3)ncnc2c1
59 | 0.25 to 1 | CCNc1nc2ccc(-c3ccc4c(c3)CN(c3cc(Nc5cccc(OC)c5)ncn3)CCO4)cc2[nH]1
60 | ≤ 0.01 | COC(=O)Nc1nc2ccc(-c3ccc4c(c3)CN(c3ccnc5cc(OC)c(OC)cc35)CCO4)cc2[nH]1
61 | 0.01 to 0.05 | COCCOCc1nc2c(c(N3CCOc4ccc(-c5cnc6nc(C)[nH]c6c5)cc4C3)n1)CC(C)(C)CC2
62 | 0.05 to 0.25 | Cc1nc2ccc(-c3ccc4c(c3)CN(c3ncnc5c3CC(C)C5)CCO4)cc2[nH]1 (configuration not stated)
63 | 0.01 to 0.05 | CC1(C)CCc2ncnc(N3CCOc4ccc(-c5ccc6nc(NCCF)[nH]c6c5)cc4C3)c2C1
64 | 0.05 to 0.25 | CCNc1nc2ccc(-c3ccc4c(c3)CN(c3nc(NC)nc5ccccc35)CCO4)cc2[nH]1
65 | 0.01 to 0.05 | Cc1nc2ccc(-c3ccc4c(c3)CN(c3ccnc5ccccc35)CCO4)cc2[nH]1
66 | 0.01 to 0.05 | CC1(C)CCc2ncnc(N3CCOc4ccc(-c5cnc6[nH]ncc6c5)cc4C3)c2C1

Row | IC50 [µM] | SMILES
67 | ≤ 0.01 | Cc1nc2cc(-c3ccc4c(c3)CN(c3nc(CN(C)C)nc(C)c3Cc3ccc(F)cc3)CCO4)ccc2[nH]1
68 | ≤ 0.01 | COC(=O)Nc1nc2ccc(-c3ccc4c(c3)CN(c3ncnc(C)c3Cc3ccc(F)cc3)CCO4)cc2[nH]1
69 | ≤ 0.01 | CCNc1nc2ccc(-c3ccc4c(c3)CN(c3cc(C)nc5cc(OC)ccc35)CCO4)cc2[nH]1
70 | 0.01 to 0.05 | CC1(C)CCc2ncnc(N3CCOc4ccc(-c5cnc(N)c(S(=O)(=O)NCCN)c5)cc4C3)c2C1
71 | ≤ 0.01 | Cc1nc2ccc(-c3ccc4c(c3)CN(c3ncnc(C)c3C(C)c3cccc(F)c3)CCO4)cc2[nH]1 (configuration not stated)
72 | 0.01 to 0.05 | CCN(CC)Cc1nc2c(c(N3CCOc4ccc(-c5cnc6nc(C)[nH]c6c5)cc4C3)n1)CC(C)(C)CC2
73 | 0.05 to 0.25 | Cc1ncnc(N2CCOc3ccc(-c4ccc5nc(N)sc5n4)cc3C2)c1Cc1ccc(F)cc1
74 | 0.05 to 0.25 | COCCOc1ccc(-c2ccc3c(c2)CN(c2nc(CN(C)C)nc4c2CC(C)(C)CC4)CCO3)cc1OC
75 | ≤ 0.01 | CCNc1nc2ccc(-c3ccc4c(c3)CN(c3ncnc(C)c3Cc3ccc(F)cc3)CCO4)cc2[nH]1
76 | 0.05 to 0.25 | Cc1nc2ccc(-c3ccc4c(c3)CN(c3ncnc(C)c3Cc3ccccc3C)CCO4)cc2[nH]1
77 | 0.25 to 1 | CC(C)Nc1nc2ccc(-c3ccc4c(c3)CN(c3ccnc5ccccc35)CCO4)cc2[nH]1
78 | 0.01 to 0.05 | CC1=C(C)C(C)(C)Cc2c1ncnc2N1CCOc2ccc(-c3cnc4nc(C)[nH]c4c3)cc2C1
79 | 0.05 to 0.25 | Cc1nc2cc(-c3ccc4c(c3)CN(c3nc(CN(C)C)nc(C)c3Br)CCO4)ccc2[nH]1
80 | ≤ 0.01 | COC(=O)Nc1nc2ncc(-c3ccc4c(c3)CN(c3ncnc(C)c3Cc3ccc(F)cc3)CCO4)cc2[nH]1
81 | ≤ 0.01 | Cc1nc(CN(C)C)nc(N2CCOc3ccc(-c4ccc5[nH]c(C(F)F)nc5c4)cc3C2)c1Cc1ccc(F)cc1
82 | ≤ 0.01 | CN(C)Cc1nc2c(c(N3CCOc4ccc(-c5cnc(Cl)c(NS(C)(=O)=O)c5)cc4C3)n1)CC(C)(C)CC2
83 | ≤ 0.01 | CCNc1nc2ccc(-c3ccc4c(c3)CN(c3ccnc5cc(OC)ccc35)CCO4)cc2[nH]1
84 | 0.01 to 0.05 | Cc1ncnc(N2CCOc3ccc(-c4ccc5[nH]c(NCCF)nc5c4)cc3C2)c1Cc1ccc(F)cc1
85 | 0.05 to 0.25 | CC1(C)CCc2ncnc(N3CCOc4ccc(-c5cnc(N)c(S(=O)(=O)NC[C@H]6CCCNC6)c5)cc4C3)c2C1
86 | 0.05 to 0.25 | Cc1ncnc(N2CCOc3ccc(-c4ccc5nc(N)nn5c4)cc3C2)c1Cc1ccc(F)cc1
87 | 0.25 to 1 | Cc1nc2ccc(-c3ccc4c(c3)CN(c3ncnc5ccc(OCCCN(C)C)cc35)CCO4)cc2[nH]1

— the Kinase Knowledgebase extract (Sharma et al. 2016)
